{"source": "paper PMC8215855", "about": "(Journal of medicinal chemistry, 2020)", "key": {"[1]": {"tested_on": "sickle cell disease model", "conditions": "SCD mice; cited from earlier work"}, "[2]": {"tested_on": "blood S1P levels", "conditions": "rats dosed with 10 mg/kg; cited from earlier work"}, "[3]": {"target": "human SphK1", "conditions": "read-out: human SphK1 Ki; cited from earlier work"}, "[4]": {"target": "mouse SphK2", "conditions": "read-out: mouse SphK2 Ki; cited from earlier work"}, "[5]": {"tested_on": "blood S1P concentration", "conditions": "treatment in mice; cited from earlier work"}, "[6]": {"tested_on": "blood S1P levels", "assay": "Blood S1P levels in mice after i.p. dose", "type": "in vivo", "conditions": "single 10 mg/kg i.p., C57BL/6 male mice"}, "[7]": {"assay": "Blood concentration of compound in mice after i.p. dose", "type": "in vivo", "conditions": "single 10 mg/kg i.p., C57BL/6 male mice, LC-MS/MS"}}, "data": [{"smiles": "Cc1cc(CS(=O)(=O)c2ccccc2)cc(OCc2ccc(CN3CCC[C@@H]3CO)cc2)c1", "note": "[Compound 3a]", "values": [{"measurement": "blood and plasma S1P levels", "setting": "[1]", "value": "reduced"}, {"measurement": "erythrocyte sickling", "setting": "[1]", "value": "decreased"}]}, {"smiles": "CCCCCCCCc1ccc(-c2noc(C[C@@H]3CCCN3C(=N)N)n2)cc1", "note": "[Compound 4]", "values": [{"measurement": "decrease of blood S1P levels", "setting": "[2]", "value": "about 80%"}]}, {"smiles": "Cc1ccc(S(=O)(=O)Nc2ccccc2/C=N/c2ccccc2NS(=O)(=O)c2ccc(C)cc2)cc1", "note": "[Compound 5]", "values": [{"measurement": "Ki", "setting": "[3]", "value": "27 ± 3", "unit": "µM"}]}, {"smiles": "CCCCCCCCc1ccc(-c2noc([C@@H]3CCCN3C(=N)N)n2)cc1", "note": "[Compound 7]", "values": [{"measurement": "Ki", "setting": "[4]", "value": 1.3, "unit": "µM"}]}, {"smiles": "CCCCCCCCOc1ccc(-c2noc([C@@H]3CCCN3C(=N)N)n2)cc1C(F)(F)F.Cl", "note": "[Compound 8]", "values": [{"measurement": "blood S1P concentration", "setting": "[5]", "value": "increase in blood S1P concentration"}]}, {"smiles": "Cl.N=C(N)N1CCC[C@H]1c1nc(-c2ccc(OCc3ccc(C(F)(F)F)cc3)c(C(F)(F)F)c2)no1", "note": "[Compound 10, (S)-2-(3-(3-(trifluoromethyl)-4-((4-(trifluoromethyl)benzyl)oxy)phenyl)-1,2,4-oxadiazol-5-yl)pyrrolidine-1-carboximidamide]", "values": [{"measurement": "time blood S1P levels remained elevated", "setting": "[6]", "value": "up to 6 hours"}, {"measurement": "increase of blood S1P levels", "setting": "[6]; after 4 hours", "value": "nearly two-fold"}, {"measurement": "peak level of compound in blood", "setting": "[7]", "value": "~ 8 μM"}]}]}
